Key:
CfVgRXR + MmRXR [1] = assay: Transactivation of reporter genes through switch 1.9 in 3T3 cells; format: cell-based, Choristoneura fumiferana; conditions: switch 1.9 CfVgRXR + MmRXR, pIND(SP1)LacZ
Method: (§1) This example was prepared in the same way as switch 1.8 except DinEcR was replaced with a truncated CfEcR comprising a partial A/B domain and the complete CDEF domains [SEQ ID NO: 62 (polynucleotide) and SEQ ID NO: 63 (polypeptide)].
(§2) The cells were plated when they reached 50% confluency.
(§3) Cells were harvested 24-48 hr after adding ligands. […] Twenty μl of lysate was assayed.

GAL4EcR + VP16USP [2] = assay: Transactivation of reporter genes through switch 1.2 in CV1 cells; format: cell-based, Choristoneura fumiferana; conditions: switch 1.2 GAL4EcR + VP16USP, pGAL4RELuc
Method: (§4) This construct was prepared in the same way as in switch 1.1 above except MmRXRDEF was replaced with the D, E and F domains from spruce budworm USP (“CfUSPDEF”; SEQ ID NO: 58). The constructs used in this example are similar to those disclosed in U.S. Pat. No. 5,880,333 except that Choristoneura fumiferana USP rather than Drosophila melanogaster USP was utilized.
(§5) The same procedures described for NIH3T3 cells were followed for CV1 cells
as §3

DmVgRXR + MmRXR [3] = molecular target: T1, DmVgRXR + MmRXR (Drosophila melanogaster, UniProt P34021, E282G/G283S/G286V); assay: Transactivation of reporter genes through switch 1.8 in CHO cells; format: cell-based; conditions: switch 1.8 DmVgRXR + MmRXR, pIND(SP1)LacZ
T1 construct: host or cells: CHO, NIH3T3, 293 or CV1 cells (one cell line per assay)
From the text: (§6) This system was purchased from Invitrogen Corp., Carlsbad, Calif. It comprises a Drosophila melanogaster EcR (“DmEcR”) with a modified DNABD fused to VP16AD and placed under the control of a CMV promoter (SEQ ID NO: 60). Full length MmRXR (SEQ ID NO: 53) was placed under the control of the RSV promoter (SEQ ID NO: 61). The reporter, pIND(SP1)LacZ, contains five copies of a modified ecdysone response element (“EcRE”, E/GRE), three copies of an SP1 enhancer, and a minimal heat shock promoter, all of which were placed upstream to the LacZ reporter gene.
(§7) The cells were harvested and reporter activity was assayed.
as §3

GAL4EcR + VP16RXR [4] = assay: Transactivation of reporter genes through switch 1.1 in CHO cells; format: cell-based, Choristoneura fumiferana; conditions: switch 1.1 GAL4EcR + VP16RXR, pGAL4RELuc
Method: as §7, §3

CfVgRXR + MmRXR [5] = assay: Transactivation of reporter genes through switch 1.9 in CHO cells; format: cell-based, Choristoneura fumiferana; conditions: switch 1.9 CfVgRXR + MmRXR, pIND(SP1)LacZ
Method: as §1, §7, §3

GAL4EcR + VP16RXR [6] = assay: Transactivation of reporter genes through switch 1.1 in 293 cells; format: cell-based, Choristoneura fumiferana; conditions: switch 1.1 GAL4EcR + VP16RXR, pGAL4RELuc
Method: (§8) The same procedures described for CHO were followed for 293 cells except that the cells were plated in biocoated plates to avoid clumping.
as §3

GAL4EcR + VP16USP [7] = assay: Transactivation of reporter genes through switch 1.2 in 3T3 cells; format: cell-based, Choristoneura fumiferana; conditions: switch 1.2 GAL4EcR + VP16USP, pGAL4RELuc
Method: as §4, §2, §3

GAL4RXR + VP16DmEcR [8] = molecular target: T2, GAL4RXR + VP16DmEcR (Drosophila melanogaster, UniProt P34021); assay: Transactivation of reporter genes through switch 1.4 in CHO cells; format: cell-based; set-up: expressed in transfected cells; host or cells: CHO cells (transient co-transfection); conditions: switch 1.4 GAL4RXR + VP16DmEcR, pGAL4RELuc
T2 sequence (P34021 254-878): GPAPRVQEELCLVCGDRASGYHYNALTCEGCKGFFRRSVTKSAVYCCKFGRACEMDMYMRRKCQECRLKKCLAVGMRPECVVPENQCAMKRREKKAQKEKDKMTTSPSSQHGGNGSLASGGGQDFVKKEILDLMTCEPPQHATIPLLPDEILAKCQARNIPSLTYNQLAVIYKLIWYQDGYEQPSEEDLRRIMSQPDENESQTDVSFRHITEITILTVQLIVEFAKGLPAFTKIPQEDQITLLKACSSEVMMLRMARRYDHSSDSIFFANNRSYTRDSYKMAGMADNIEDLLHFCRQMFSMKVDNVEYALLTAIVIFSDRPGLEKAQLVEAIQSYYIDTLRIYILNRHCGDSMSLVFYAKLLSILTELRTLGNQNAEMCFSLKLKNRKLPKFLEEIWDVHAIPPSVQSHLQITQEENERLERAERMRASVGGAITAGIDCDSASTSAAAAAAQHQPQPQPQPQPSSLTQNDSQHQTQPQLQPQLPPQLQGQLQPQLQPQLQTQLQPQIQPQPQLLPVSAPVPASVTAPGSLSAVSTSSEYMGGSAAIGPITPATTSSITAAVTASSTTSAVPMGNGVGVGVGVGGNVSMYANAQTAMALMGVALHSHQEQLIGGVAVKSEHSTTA
T2 sequence (P28700 206-467 partner limits assumed): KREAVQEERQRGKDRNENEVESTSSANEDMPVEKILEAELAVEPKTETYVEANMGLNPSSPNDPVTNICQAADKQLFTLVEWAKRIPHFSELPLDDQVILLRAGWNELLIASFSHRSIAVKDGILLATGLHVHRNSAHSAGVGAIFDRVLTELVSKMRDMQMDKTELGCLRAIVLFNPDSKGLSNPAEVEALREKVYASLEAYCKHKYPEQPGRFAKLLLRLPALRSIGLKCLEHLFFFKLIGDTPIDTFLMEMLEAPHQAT
Method: (§9) This construct was prepared in the same way as switch 1.3 except CfEcRCDEF was replaced with DmEcRCDEF (SEQ ID NO: 6).
as §7, §3

GAL4RXR + VP16DmEcR [9] = molecular target: T2, GAL4RXR + VP16DmEcR; assay: Transactivation of reporter genes through switch 1.4 in 293 cells; format: cell-based; set-up: expressed in transfected cells; host or cells: 293 cells (transient co-transfection); conditions: switch 1.4 GAL4RXR + VP16DmEcR, pGAL4RELuc
Method: as §9, §8, §3

GAL4EcR + VP16USP [10] = assay: Transactivation of reporter genes through switch 1.2 in 293 cells; format: cell-based, Choristoneura fumiferana; conditions: switch 1.2 GAL4EcR + VP16USP, pGAL4RELuc
Method: as §4, §8, §3

GAL4EcR + VP16USP [11] = assay: Transactivation of reporter genes through switch 1.2 in CHO cells; format: cell-based, Choristoneura fumiferana; conditions: switch 1.2 GAL4EcR + VP16USP, pGAL4RELuc
Method: as §4, §7, §3

CfVgRXR [12] = assay: Transactivation of reporter genes through switch 1.10 in 293 cells; format: cell-based, Choristoneura fumiferana; conditions: switch 1.10 CfVgRXR, pIND(SP1)LacZ
Method: (§10) This example was prepared in the same way as switch 1.9 except MmRXR (SEQ ID NO: 53) was deleted.
as §8, §3

CfVgRXR + MmRXR [13] = assay: Transactivation of reporter genes through switch 1.9 in 293 cells; format: cell-based, Choristoneura fumiferana; conditions: switch 1.9 CfVgRXR + MmRXR, pIND(SP1)LacZ
Method: as §1, §8, §3

CfVgRXR [14] = assay: Transactivation of reporter genes through switch 1.10 in 3T3 cells; format: cell-based, Choristoneura fumiferana; conditions: switch 1.10 CfVgRXR, pIND(SP1)LacZ
Method: as §10, §2, §3

DmVgRXR + MmRXR [15] = molecular target: T1, DmVgRXR + MmRXR; assay: Transactivation of reporter genes through switch 1.8 in CV1 cells; format: cell-based; conditions: switch 1.8 DmVgRXR + MmRXR, pIND(SP1)LacZ
From the text: as §6, §5, §3

T1 sequence (P34021 whole entry E282G/G283S/G286V): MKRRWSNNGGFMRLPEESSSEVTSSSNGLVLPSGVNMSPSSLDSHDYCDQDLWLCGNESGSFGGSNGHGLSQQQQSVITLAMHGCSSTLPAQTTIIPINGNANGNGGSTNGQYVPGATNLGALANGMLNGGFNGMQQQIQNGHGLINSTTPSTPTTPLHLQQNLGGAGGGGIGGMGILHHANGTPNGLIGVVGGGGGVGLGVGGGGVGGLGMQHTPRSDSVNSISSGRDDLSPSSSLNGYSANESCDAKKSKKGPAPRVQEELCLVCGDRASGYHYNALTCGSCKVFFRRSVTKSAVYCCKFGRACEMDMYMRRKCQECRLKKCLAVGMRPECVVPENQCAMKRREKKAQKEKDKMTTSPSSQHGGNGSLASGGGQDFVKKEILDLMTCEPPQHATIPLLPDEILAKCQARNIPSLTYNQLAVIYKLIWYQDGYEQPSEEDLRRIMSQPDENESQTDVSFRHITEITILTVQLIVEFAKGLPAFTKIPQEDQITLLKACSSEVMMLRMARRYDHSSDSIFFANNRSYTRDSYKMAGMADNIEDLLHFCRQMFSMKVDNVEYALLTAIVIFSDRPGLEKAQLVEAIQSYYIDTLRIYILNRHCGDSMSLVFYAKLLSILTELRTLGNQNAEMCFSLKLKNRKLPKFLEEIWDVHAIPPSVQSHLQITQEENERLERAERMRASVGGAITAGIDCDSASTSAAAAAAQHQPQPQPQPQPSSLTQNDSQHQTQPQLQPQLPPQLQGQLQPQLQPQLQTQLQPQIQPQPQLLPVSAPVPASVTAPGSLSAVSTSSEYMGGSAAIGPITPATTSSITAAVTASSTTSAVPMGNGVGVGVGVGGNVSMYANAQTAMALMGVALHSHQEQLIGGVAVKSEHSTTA
T1 sequence (P28700 whole entry, further chain): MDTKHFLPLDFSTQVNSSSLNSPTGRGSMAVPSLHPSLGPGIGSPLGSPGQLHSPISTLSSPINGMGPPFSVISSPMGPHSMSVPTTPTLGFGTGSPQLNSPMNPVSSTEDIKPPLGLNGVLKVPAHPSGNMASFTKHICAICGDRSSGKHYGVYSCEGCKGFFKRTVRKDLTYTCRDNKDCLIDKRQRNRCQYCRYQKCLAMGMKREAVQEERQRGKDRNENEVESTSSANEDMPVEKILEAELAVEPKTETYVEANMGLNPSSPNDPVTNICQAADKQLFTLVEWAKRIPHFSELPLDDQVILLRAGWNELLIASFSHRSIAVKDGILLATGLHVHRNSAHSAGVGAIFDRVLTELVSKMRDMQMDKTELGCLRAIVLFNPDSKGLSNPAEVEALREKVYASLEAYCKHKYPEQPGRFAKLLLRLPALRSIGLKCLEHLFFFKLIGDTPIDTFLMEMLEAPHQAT

Compound: CCc1c(OC)cccc1C(=O)NN(C(=O)c1cc(C)cc(C)c1)C(C)(C)C [N-(2-ethyl-3-methoxybenzoyl)-N′-(3,5-dimethylbenzoyl)-N′-tert-butylhydrazine]
- Mean Fold Activation Through N-(2-ethyl-3-methoxybenzoyl)-N′-(3,5-dimethylbenzoyl)-N′-t-butylhydrazine (CfVgRXR + MmRXR [1]): 19 fold
- Mean Fold Activation Through N-(2-ethyl-3-methoxybenzoyl)-N′-(3,5-dimethylbenzoyl)-N′-t-butylhydrazine (GAL4EcR + VP16USP [2]): 2 fold
- Mean Fold Activation with 50 μM N-(2-ethyl-3-methoxybenzoyl)-N′-(3,5-dimethylbenzoyl)-N′-t-butylhydrazine (DmVgRXR + MmRXR [3]): 14 fold
- Mean Fold Activation with 50 μM N-(2-ethyl-3-methoxybenzoyl)-N′-(3,5-dimethylbenzoyl)-N′-t-butylhydrazine (GAL4EcR + VP16RXR [4]): 267 fold
- Mean Fold Activation with 50 μM N-(2-ethyl-3-methoxybenzoyl)-N′-(3,5-dimethylbenzoyl)-N′-t-butylhydrazine (CfVgRXR + MmRXR [5]): 27 fold
- Mean Fold Activation Through N-(2-ethyl-3-methoxybenzoyl)-N′-(3,5-dimethylbenzoyl)-N′-t-butylhydrazine (GAL4EcR + VP16RXR [6]): 125 fold
- Mean Fold Activation Through N-(2-ethyl-3-methoxybenzoyl)-N′-(3,5-dimethylbenzoyl)-N′-t-butylhydrazine (GAL4EcR + VP16USP [7]): 2 fold
- Mean Fold Activation with 50 μM N-(2-ethyl-3-methoxybenzoyl)-N′-(3,5-dimethylbenzoyl)-N′-t-butylhydrazine (GAL4RXR + VP16DmEcR [8]): 312 fold
- Mean Fold Activation Through N-(2-ethyl-3-methoxybenzoyl)-N′-(3,5-dimethylbenzoyl)-N′-t-butylhydrazine (GAL4RXR + VP16DmEcR [9]): 3 fold
- Mean Fold Activation Through N-(2-ethyl-3-methoxybenzoyl)-N′-(3,5-dimethylbenzoyl)-N′-t-butylhydrazine (GAL4EcR + VP16USP [10]): 2 fold
- Mean Fold Activation with 50 μM N-(2-ethyl-3-methoxybenzoyl)-N′-(3,5-dimethylbenzoyl)-N′-t-butylhydrazine (GAL4EcR + VP16USP [11]): 2 fold
- Mean Fold Activation Through N-(2-ethyl-3-methoxybenzoyl)-N′-(3,5-dimethylbenzoyl)-N′-t-butylhydrazine (CfVgRXR [12]): 3 fold
- Mean Fold Activation Through N-(2-ethyl-3-methoxybenzoyl)-N′-(3,5-dimethylbenzoyl)-N′-t-butylhydrazine (CfVgRXR + MmRXR [13]): 12 fold
- Mean Fold Activation Through N-(2-ethyl-3-methoxybenzoyl)-N′-(3,5-dimethylbenzoyl)-N′-t-butylhydrazine (CfVgRXR [14]): 2 fold
- Mean Fold Activation Through N-(2-ethyl-3-methoxybenzoyl)-N′-(3,5-dimethylbenzoyl)-N′-t-butylhydrazine (DmVgRXR + MmRXR [15]): 12 fold
